# Results published in publication PMC5770336, “Characterisation of endogenous A2A and A2B receptor-mediated cyclic AMP responses in HEK 293 cells using the GloSensor™ biosensor: Evidence for an allosteric mechanism of action for the A2B-selective antagonist PSB 603” (Biochemical Pharmacology, 2018).
# “And” between values parts separate entries of the source, which are not always exact repeats. Identical values can stand only once. “Also recorded” adds a separate entry of the source. Like-named read-outs stand apart in the source and are kept apart here.
# Assays:
# [1] = molecular target: T1, A2BAR (Homo sapiens, UniProt P29275); experiment: GloSensor cAMP luminescence assay in HEK293G cells, endogenous A2BAR-mediated responses (NECA, adenosine, BAY 60-6583); assay type: cell-based; details: for antagonism of the response to BAY 60-6583 (in words): 1 μM BAY 60-6583; for mode of antagonism (in words): agonist concentration-response curves with increasing antagonist; for IC50 / pIC50 / inhibition of the response to 10 µM NECA (in words): 30 min pre-incubation; for -Log KB / Kb: apparent KB, modified Gaddum equation; for inhibition of the response to 10 µM NECA (in words): antagonist up to 10 µM
# T1 construct: Gs-coupled A2BARs endogenously expressed in HEK293 cells; host or cells: HEK293G (HEK293 stably expressing the GloSensor 20F cAMP biosensor)
# T1 sequence (P29275 1-332): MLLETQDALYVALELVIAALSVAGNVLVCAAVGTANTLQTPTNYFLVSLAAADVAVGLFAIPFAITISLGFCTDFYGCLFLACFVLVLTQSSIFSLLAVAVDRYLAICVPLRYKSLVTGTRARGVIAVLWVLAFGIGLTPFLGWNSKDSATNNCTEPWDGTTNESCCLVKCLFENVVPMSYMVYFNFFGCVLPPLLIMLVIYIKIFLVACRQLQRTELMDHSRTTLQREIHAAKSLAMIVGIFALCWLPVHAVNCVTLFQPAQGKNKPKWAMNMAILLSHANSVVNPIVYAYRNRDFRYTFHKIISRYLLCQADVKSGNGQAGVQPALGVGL
# Experimental: (§1) The cAMP GloSensor™ (20F) biosensor [26] expressed in HEK293 (HEK293G) cells was obtained from Promega (Madison, WI). HEK293G cells were maintained in Dulbecco modified eagles medium (DMEM) supplemented with 2 mM L-glutamine, 10% FCS (fetal calf serum) and 200 μg/ml hygromycin B at 37 °C 5% CO2. […] For the GloSensor™ assay, cells were re-suspended in DMEM supplemented with 2 mM L-glutamine and 10% FCS and seeded at a density of 35000 cells/well on poly-l-lysine treated clear bottomed white walled 96 well plates. Cells were incubated at 37°C 5% CO2 overnight prior to assay.
# (§2) The GloSensor™ assay was carried out as per manufacturer’s instructions (Promega, Madison, WI, USA). […] Agonist concentration response curves were simultaneously obtained (in the absence of antagonist).
# [2] = molecular target: T2, A2AAR (Homo sapiens, UniProt P29274); experiment: GloSensor cAMP luminescence assay in HEK293G cells, endogenous A2AAR-mediated responses (CGS 21680); assay type: cell-based
# T2 construct: We also provide evidence for a minor population of endogenous A2AAR in this cell line; host or cells: HEK293G (HEK293 stably expressing the GloSensor 20F cAMP biosensor)
# Experimental: as §1, §2
# [3] = tested on: adenylyl cyclase; experiment: Forskolin-stimulated GloSensor cAMP luminescence in HEK293G cells; assay type: cell-based, human; details: forskolin concentration-response curves, PSB 603 up to 300 nM
# Experimental: The cAMP GloSensor™ (20F) biosensor [26] expressed in HEK293 (HEK293G) cells was obtained from Promega (Madison, WI). HEK293G cells were maintained in Dulbecco modified eagles medium (DMEM) supplemented with 2 mM L-glutamine, 10% FCS (fetal calf serum) and 200 μg/ml hygromycin B at 37 °C 5% CO2. Once confluent, cells were dislodged from the flask surface by gentle shaking after incubation in 0.25% trypsin and cell pellet formed following 5 min 1000 g centrifugation. For the GloSensor™ assay, cells were re-suspended in DMEM supplemented with 2 mM L-glutamine and 10% FCS and seeded at a density of 35000 cells/well on poly-l-lysine treated clear bottomed white walled 96 well plates. Cells were incubated at 37°C 5% CO2 overnight prior to assay.
# The GloSensor™ assay was carried out as per manufacturer’s instructions (Promega, Madison, WI, USA).
# [4] = molecular target: A2AAR; details: cited from earlier work
# [5] = molecular target: A2BAR; details: cited from earlier work
# [6] = antagonism of BAY 60-6583 (1 µM) response, HEK293G
# [7] = antagonism of NECA (10 µM) response, HEK293G
# [8] = antagonism of adenosine (10 µM) response, HEK293G
# T2 sequence (P29274 whole entry): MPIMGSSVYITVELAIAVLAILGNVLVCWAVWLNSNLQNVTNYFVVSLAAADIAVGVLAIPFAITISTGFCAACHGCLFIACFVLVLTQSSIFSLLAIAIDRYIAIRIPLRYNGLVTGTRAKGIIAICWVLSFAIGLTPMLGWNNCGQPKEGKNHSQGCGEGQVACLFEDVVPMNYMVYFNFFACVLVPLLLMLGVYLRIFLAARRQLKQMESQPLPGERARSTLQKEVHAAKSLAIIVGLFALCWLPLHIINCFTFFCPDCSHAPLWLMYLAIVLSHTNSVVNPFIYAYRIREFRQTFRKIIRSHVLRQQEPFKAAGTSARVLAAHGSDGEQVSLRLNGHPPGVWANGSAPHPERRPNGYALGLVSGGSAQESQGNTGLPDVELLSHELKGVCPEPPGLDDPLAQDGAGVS
compound,measurement,setting,value
"N#Cc1c(N)nc(SCC(N)=O)c(C#N)c1-c1ccc(OCC2CC2)cc1 [BAY 60-6583, 2-[[6-Amino-3,5-dicyano-4-[4-(cyclopropylmethoxy)phenyl]-2-pyridinyl]thio]-acetamide]",EC50,"[1]; BAY 60-6583 pEC50, PSB 603 0 nM",407 nM
same,EC50,"[1]; BAY 60-6583 pEC50, PSB 603 30 nM",1580 nM
same,EC50,"[1]; BAY 60-6583 pEC50, PSB 603 100 nM",4570 nM
same,EC50,"[1]; BAY 60-6583 pEC50, PSB 603 300 nM",> 30000 nM
same,EC50,"[1]; BAY 60-6583 pEC50, XAC 0 nM",380 nM
same,EC50,"[1]; BAY 60-6583 pEC50, XAC 100 nM",1320 nM
same,EC50,"[1]; BAY 60-6583 pEC50, XAC 300 nM",2240 nM
same,EC50,"[1]; BAY 60-6583 pEC50, XAC 1000 nM",9330 nM
same,EC50,"[1]; BAY 60-6583 pEC50, ZM 241385 0 nM",347 nM
same,EC50,"[1]; BAY 60-6583 pEC50, ZM 241385 100 nM",1410 nM
same,EC50,"[1]; BAY 60-6583 pEC50, ZM 241385 300 nM",2140 nM
same,EC50,"[1]; BAY 60-6583 pEC50, ZM 241385 1000 nM",7240 nM
same,Emax at 0.03 µM,"[1]; HEK293G, read-out: BAY 60-6583 Emax, PSB 603 30 nM, percentage of response to 10 µM BAY 60-6583",82.2 ± 1.64%
same,Emax at 0.1 µM,"[1]; HEK293G, read-out: BAY 60-6583 Emax, PSB 603 100 nM, percentage of response to 10 µM BAY 60-6583",68.7 ± 6.78%
same,Emax at 0.3 µM,"[1]; HEK293G, read-out: BAY 60-6583 Emax, PSB 603 300 nM, percentage of response to 10 µM BAY 60-6583",99.3 ± 26.6%
same,Emax,"[1]; HEK293G, read-out: BAY 60-6583 Emax, XAC 0 nM, percentage of response to 10 μM BAY 60-6583",104 ± 5.27%
same,Emax,"[1]; HEK293G, read-out: BAY 60-6583 Emax, XAC 100 nM, percentage of response to 10 μM BAY 60-6583",96.6 ± 4.8%
same,Emax,"[1]; HEK293G, read-out: BAY 60-6583 Emax, XAC 300 nM, percentage of response to 10 μM BAY 60-6583",85.6 ± 5.04%
same,Emax,"[1]; HEK293G, read-out: BAY 60-6583 Emax, XAC 1000 nM, percentage of response to 10 μM BAY 60-6583",55.9 ± 7.86%
same,Emax at 0.1 µM,"[1]; HEK293G, read-out: BAY 60-6583 Emax, ZM 241385 100 nM, percentage of response to 10 μM BAY 60-6583",99 ± 7.14%
same,Emax at 0.3 µM,"[1]; HEK293G, read-out: BAY 60-6583 Emax, ZM 241385 300 nM, percentage of response to 10 μM BAY 60-6583",80.8 ± 8.36%
same,Emax at 1 µM,"[1]; HEK293G, read-out: BAY 60-6583 Emax, ZM 241385 1000 nM, percentage of response to 10 μM BAY 60-6583",54.1 ± 8.41%
same,BAY 60-6583 Emax,"[1]; PSB 603 0 nM, percentage of response to 10 µM BAY 60-6583",104.40 ± 5.14%
same,BAY 60-6583 Emax,"[1]; ZM 241385 0 nM, percentage of response to 10 μM BAY 60-6583",100.80 ± 4.61%
same,EC50,"[1]; agonist pEC50, cAMP Glosensor luminescence, peak luminescence, HEK 293 cells, no antagonist (Fig. 4)",646 nM
same,agonist efficacy (in words),"[1]; relative to adenosine and NECA, HEK293G",partial agonist
CCCn1c(=O)[nH]c2nc(-c3ccc(S(=O)(=O)N4CCN(c5ccc(Cl)cc5)CC4)cc3)[nH]c2c1=O [PSB 603],antagonism of the response to BAY 60-6583 (in words),[1],completely abolish the response
same,maximal inhibition of the NECA response,"[1]; 10 µM NECA, % of the maximal response to NECA",81.7 ± 2.4% and 80%
same,inhibition of the response to 10 µM adenosine,[1]; 10 µM antagonist,80.5 ± 3.0% and 80%
same,mode of antagonism (in words),[1],non-competitive antagonism
same,IC50,[1]; [6],17.4 nM
same,pIC50,[1]; [6],7.86 ± 0.13
same,IC50,[1]; [7],49.8 nM
same,pIC50,[1]; [7],7.53 ± 0.22
same,IC50,[1]; [8],141 nM
same,pIC50,[1]; [8],7.56 ± 0.43
same,-Log KB,[1]; agonist BAY 60-6583 (1 µM),8.55 ± 0.13
same,Kb,[1]; agonist BAY 60-6583 (1 µM),3.6 nM
same,-Log KB,[1]; agonist NECA (10 µM),8.50 ± 0.22
same,Kb,[1]; agonist NECA (10 µM),5.3 nM
same,-Log KB,[1]; agonist adenosine (10 µM),7.89 ± 0.43
same,Kb,[1]; agonist adenosine (10 µM),66.3 nM
same,residual peak response to NECA,"[1]; limiting level of antagonism, kinetic profile, 10 μM NECA",circa 20%
same,antagonism of the CGS 21680 response (in words),"[2]; 1 μM CGS 21680, competition curves",unable to inhibit; also recorded: not affected
same,effect of pre-incubation on CGS 21680 concentration-response curves (in words),[2]; PSB 603 up to 300 nM,did not affect; also recorded: completely unaffected
same,effect of pre-incubation on the response to forskolin (in words),[3],did not affect; also recorded: completely unaffected
same,Ki,[4],> 10000 nM
same,Ki,[5],0.5 nM
"Nc1nc2c(cnn2CCc2ccccc2)c2nc(-c3ccco3)nn12 [SCH 58261, 2-(2-Furanyl)-7-(2-phenylethyl)-7H-pyrazolo [4,3-e][1,2,4] triazolo[1,5-c]pyrimidin-5-amine]",antagonism of the response to BAY 60-6583 (in words),[1],weak antagonist
same,inhibition of the response to 10 µM NECA (in words),[1],failed to inhibit
same,inhibition of the adenosine response,"[1]; highest concentration tested, not statistically significant",approximately 35%
same,antagonism of the CGS 21680 response (in words),[2],complete concentration-dependent antagonism
same,Ki,[5],5010 nM
"Nc1nc(NCCc2ccc(O)cc2)nc2nc(-c3ccco3)nn12 [ZM 241385, 4-(2-[7-Amino-2-(2-furyl)[1,2,4]triazolo[2,3-a][1,3,5]triazin-5-ylamino]ethyl)phenol]",inhibition of the response to 10 µM NECA (in words),[1],complete inhibition
same,mode of antagonism (in words),[1],competitive interaction
